Data: patent US20240226125A1, “USE OF SOTAGLIFLOZIN FOR THE TREATMENT OF PATIENTS WITH TYPE 1 DIABETES MELLITUS” (priority 2019, published 2024)

System: adult patients with Type 1 Diabetes Mellitus who have inadequate glycemic control with insulin therapy
Experiment: inTandem 1 and inTandem 2 pooled clinical studies, safety events / main risks
Format: in vivo, human
Conditions: Week 52
[1] = 200 mg (N = 219), Baseline BMI <27 kg/m^2
[2] = 200 mg (N = 305), Baseline BMI ≥27 kg/m^2
[3] = 200 mg, Baseline BMI <27 kg/m^2
[4] = 200 mg, Baseline BMI ≥27 kg/m^2
[5] = 400 mg (N = 212), Baseline BMI <27 kg/m^2
[6] = 400 mg (N = 313), Baseline BMI ≥27 kg/m^2

**Q.** What does the source list for `CCOc1ccc(Cc2cc([C@@H]3O[C@H](SC)[C@@H](O)[C@H](O)[C@H]3O)ccc2Cl)cc1` [sotagliflozin, (2S,3R,4R,5S,6R)-2-(4-chloro-3-(4-ethoxybenzyl)phenyl)-6-(methylthio)tetrahydro-2H-pyran-3,4,5-triol]?
**A.** Genital Mycotic Infections (male), Events [n (%) n]: patients n (200 mg (N = 108), Baseline BMI <27 kg/m^2): 2; Genital Mycotic Infections (female), Events [n (%) n]: patients n (200 mg (N = 111), Baseline BMI <27 kg/m^2): 8; Genital Mycotic Infections (female), Events [n (%) n]: patients n (200 mg (N = 148), Baseline BMI ≥27 kg/m^2): 32; Genital Mycotic Infections (male), Events [n (%) n]: patients n (200 mg (N = 157), Baseline BMI ≥27 kg/m^2): 6; Positively Adjudicated Diabetic Ketoacidosis, Events [n (%) n]: patients n [1]: 7; Positively Adjudicated Severe Hypoglycemia, Events [n (%) n]: patients n [1]: 17; Positively Adjudicated Diabetic Ketoacidosis, Events [n (%) n]: patients n [2]: 8; Positively Adjudicated Severe Hypoglycemia, Events [n (%) n]: patients n [2]: 13; Diarrhea, EAIR per 1,000 Subject-years (95% CL) [3]: 89.76 (48.29, 131.23) per 1,000 Subject-years; Diarrhea, Events [n (%) n]: events n [3]: 23; Diarrhea, Events [n (%) n]: patients (%) [3]: 8.2%; Diarrhea, Events [n (%) n]: patients n [3]: 18; Diarrhea, Events per Subject per Year [3]: 0.115 Events per Subject per Year; Diarrhea, Relative Risk of EAIR (95% CL) Versus Placebo [3]: 2.60 (1.11, 6.68); Documented hypoglycemia <55 mg/dL, Events per Subject per Year [3]: 16.86 Events per Subject per Year; Genital Mycotic Infections (female), EAIR per 1,000 Subject-years (95% CL) [3]: 78.17 (24.00, 132.34) per 1,000 Subject-years; Genital Mycotic Infections (female), Events [n (%) n]: events n [3]: 10; Genital Mycotic Infections (female), Events [n (%) n]: patients (%) [3]: 7.2%; Genital Mycotic Infections (female), Events per Subject per Year [3]: 0.098 Events per Subject per Year; Genital Mycotic Infections (female), Relative Risk of EAIR (95% CL) Versus Placebo [3]: 2.57 (0.70, 11.96); Genital Mycotic Infections (male), EAIR per 1,000 Subject-years (95% CL) [3]: 20.37 (0.00, 48.60) per 1,000 Subject-years; Genital Mycotic Infections (male), Events [n (%) n]: events n [3]: 2; Genital Mycotic Infections (male), Events [n (%) n]: patients (%) [3]: 1.9%; Genital Mycotic Infections (male), Events per Subject per Year [3]: 0.020 Events per Subject per Year; Genital Mycotic Infections (male), Relative Risk of EAIR (95% CL) Versus Placebo [3]: 1.06 (0.11, 10.19); Positively Adjudicated Diabetic Ketoacidosis, EAIR per 1,000 Subject-years (95% CL) [3]: 34.91 (9.05, 60.77) per 1,000 Subject-years; Positively Adjudicated Diabetic Ketoacidosis, Events [n (%) n]: events n [3]: 7; Positively Adjudicated Diabetic Ketoacidosis, Events [n (%) n]: patients (%) [3]: 3.2%; Positively Adjudicated Diabetic Ketoacidosis, Events per Subject per Year [3]: 0.035 Events per Subject per Year; Positively Adjudicated Severe Hypoglycemia, EAIR per 1,000 Subject-years (95% CL) [3]: 84.77 (44.48, 125.07) per 1,000 Subject-years; Positively Adjudicated Severe Hypoglycemia, Events [n (%) n]: events n [3]: 43; Positively Adjudicated Severe Hypoglycemia, Events [n (%) n]: patients (%) [3]: 7.8%; Positively Adjudicated Severe Hypoglycemia, Events per Subject per Year [3]: 0.214 Events per Subject per Year; Positively Adjudicated Severe Hypoglycemia, Relative Risk of EAIR (95% CL) Versus Placebo [3]: 1.01 (0.51, 2.00); Diarrhea, EAIR per 1,000 Subject-years (95% CL) [4]: 57.25 (29.20, 85.30) per 1,000 Subject-years; Diarrhea, Events [n (%) n]: events n [4]: 22; Diarrhea, Events [n (%) n]: patients (%) [4]: 5.2%; Diarrhea, Events [n (%) n]: patients n [4]: 16; Diarrhea, Events per Subject per Year [4]: 0.079 Events per Subject per Year; Diarrhea, Relative Risk of EAIR (95% CL) Versus Placebo [4]: 0.78 (0.40, 1.51); Documented hypoglycemia <55 mg/dL, Events per Subject per Year [4]: 13.41 Events per Subject per Year; Genital Mycotic Infections (female), EAIR per 1,000 Subject-years (95% CL) [4]: 240.02 (156.86, 323.19) per 1,000 Subject-years; Genital Mycotic Infections (female), Events [n (%) n]: events n [4]: 41; Genital Mycotic Infections (female), Events [n (%) n]: patients (%) [4]: 21.6%; Genital Mycotic Infections (female), Events per Subject per Year [4]: 0.308 Events per Subject per Year; Genital Mycotic Infections (female), Relative Risk of EAIR (95% CL) Versus Placebo [4]: 3.37 (1.65, 7.46); Genital Mycotic Infections (male), EAIR per 1,000 Subject-years (95% CL) [4]: 41.05 (8.20, 73.89) per 1,000 Subject-years; Genital Mycotic Infections (male), Events [n (%) n]: events n [4]: 7; Genital Mycotic Infections (male), Events [n (%) n]: patients (%) [4]: 3.8%; Genital Mycotic Infections (male), Events per Subject per Year [4]: 0.048 Events per Subject per Year; Genital Mycotic Infections (male), Relative Risk of EAIR (95% CL) Versus Placebo [4]: 5.96 (0.88, 138.01); Positively Adjudicated Diabetic Ketoacidosis, EAIR per 1,000 Subject-years (95% CL) [4]: 28.62 (8.79, 48.46) per 1,000 Subject-years; Positively Adjudicated Diabetic Ketoacidosis, Events [n (%) n]: events n [4]: 9; Positively Adjudicated Diabetic Ketoacidosis, Events [n (%) n]: patients (%) [4]: 2.6%; Positively Adjudicated Diabetic Ketoacidosis, Events per Subject per Year [4]: 0.032 Events per Subject per Year; Positively Adjudicated Diabetic Ketoacidosis, Relative Risk of EAIR (95% CL) Versus Placebo [4]: 7.77 (1.24, 173.82); Positively Adjudicated Severe Hypoglycemia, EAIR per 1,000 Subject-years (95% CL) [4]: 46.51 (21.23, 71.80) per 1,000 Subject-years; Positively Adjudicated Severe Hypoglycemia, Events [n (%) n]: events n [4]: 25; Positively Adjudicated Severe Hypoglycemia, Events [n (%) n]: patients (%) [4]: 4.3%; Positively Adjudicated Severe Hypoglycemia, Events per Subject per Year [4]: 0.089 Events per Subject per Year; Positively Adjudicated Severe Hypoglycemia, Relative Risk of EAIR (95% CL) Versus Placebo [4]: 0.57 (0.28, 1.14); Genital Mycotic Infections (male), Events [n (%) n]: patients n (400 mg (N = 99), Baseline BMI <27 kg/m^2): 9; Genital Mycotic Infections (female), Events [n (%) n]: patients n (400 mg (N = 113), Baseline BMI <27 kg/m^2): 19; Genital Mycotic Infections (male), Events [n (%) n]: patients n (400 mg (N = 154), Baseline BMI ≥27 kg/m^2): 7; Genital Mycotic Infections (female), Events [n (%) n]: patients n (400 mg (N = 159), Baseline BMI ≥27 kg/m^2): 28; Positively Adjudicated Diabetic Ketoacidosis, Events [n (%) n]: patients n [5]: 9; Positively Adjudicated Severe Hypoglycemia, Events [n (%) n]: patients n [5]: 11; Positively Adjudicated Diabetic Ketoacidosis, Events [n (%) n]: patients n [6]: 11; Positively Adjudicated Severe Hypoglycemia, Events [n (%) n]: patients n [6]: 12
